Measured values as given in publication PMC12827886 (Acta Pharmaceutica Sinica. B, 2025).

Target: Cereblon (CRBN) (Homo sapiens, UniProt Q96SW2)
Experiment: biochemical
Type: binding

Cereblon (CRBN), sequence (Q16531 2-1140): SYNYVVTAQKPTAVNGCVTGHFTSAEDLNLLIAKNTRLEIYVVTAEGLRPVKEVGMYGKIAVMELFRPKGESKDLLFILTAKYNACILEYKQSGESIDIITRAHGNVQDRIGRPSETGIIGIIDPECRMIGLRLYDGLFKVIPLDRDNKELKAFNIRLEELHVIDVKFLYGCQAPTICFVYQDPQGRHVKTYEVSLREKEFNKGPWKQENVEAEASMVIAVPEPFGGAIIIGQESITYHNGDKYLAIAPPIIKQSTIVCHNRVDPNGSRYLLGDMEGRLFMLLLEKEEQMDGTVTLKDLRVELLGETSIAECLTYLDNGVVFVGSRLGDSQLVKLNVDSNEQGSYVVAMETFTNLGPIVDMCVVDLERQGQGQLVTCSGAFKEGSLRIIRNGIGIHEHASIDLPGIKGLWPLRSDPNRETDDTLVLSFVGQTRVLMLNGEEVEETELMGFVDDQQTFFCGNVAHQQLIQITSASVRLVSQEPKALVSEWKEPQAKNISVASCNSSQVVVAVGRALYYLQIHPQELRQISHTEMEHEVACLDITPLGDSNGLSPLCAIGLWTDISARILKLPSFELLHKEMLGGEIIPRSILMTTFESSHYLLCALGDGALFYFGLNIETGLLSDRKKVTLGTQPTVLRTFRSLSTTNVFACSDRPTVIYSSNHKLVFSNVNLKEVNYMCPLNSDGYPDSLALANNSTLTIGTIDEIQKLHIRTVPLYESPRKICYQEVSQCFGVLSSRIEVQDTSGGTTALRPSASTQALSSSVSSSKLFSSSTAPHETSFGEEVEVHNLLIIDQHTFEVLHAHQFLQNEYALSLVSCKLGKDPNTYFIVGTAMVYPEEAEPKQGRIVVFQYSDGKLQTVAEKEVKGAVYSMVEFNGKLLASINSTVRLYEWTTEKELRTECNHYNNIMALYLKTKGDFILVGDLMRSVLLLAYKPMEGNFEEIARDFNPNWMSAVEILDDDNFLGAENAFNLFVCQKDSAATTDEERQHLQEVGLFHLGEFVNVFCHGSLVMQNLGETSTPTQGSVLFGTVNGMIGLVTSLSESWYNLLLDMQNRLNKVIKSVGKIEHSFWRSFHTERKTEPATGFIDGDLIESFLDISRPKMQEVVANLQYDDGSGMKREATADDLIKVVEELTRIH
Cereblon (CRBN), sequence (Q96SW2 whole entry): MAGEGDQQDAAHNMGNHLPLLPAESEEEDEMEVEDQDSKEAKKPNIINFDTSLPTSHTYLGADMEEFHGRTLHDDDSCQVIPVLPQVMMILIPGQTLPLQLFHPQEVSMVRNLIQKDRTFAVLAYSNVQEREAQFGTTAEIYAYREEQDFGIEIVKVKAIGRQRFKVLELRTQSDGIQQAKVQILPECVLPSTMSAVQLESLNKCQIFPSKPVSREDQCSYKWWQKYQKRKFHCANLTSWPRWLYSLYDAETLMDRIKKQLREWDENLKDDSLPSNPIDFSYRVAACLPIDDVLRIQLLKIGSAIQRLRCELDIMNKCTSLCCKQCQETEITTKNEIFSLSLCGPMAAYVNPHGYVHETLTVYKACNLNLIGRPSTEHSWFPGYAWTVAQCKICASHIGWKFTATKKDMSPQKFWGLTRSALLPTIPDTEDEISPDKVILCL

IC50 [µM]	Structure (SMILES)
3.09	CO[C@H]1/C=C/O[C@@]2(C)Oc3c(C)c(O)c4c(c3C2=O)C(=O)C=C(NC(=O)/C(C)=C\C=C\[C@H](C)[C@H](O)[C@@H](C)[C@@H](O)[C@@H](C)[C@H](OC(C)=O)[C@@H]1C)C4=O [Rifamycin S]
15.8	CO[C@H]1/C=C/O[C@@]2(C)Oc3c(C)c(O)c4c(c3C2=O)C2=NC3(CCN(CC(C)C)CC3)NC2=C(NC(=O)/C(C)=C\C=C\[C@H](C)[C@H](O)[C@@H](C)[C@@H](O)[C@@H](C)[C@H](OC(C)=O)[C@@H]1C)C4=O [Rifabutin]
